Laboratory results: publication PMC2699545 (Molecular genetics and metabolism, 2009)
Values belong to the molecule of their own block, whether it stands above or below them.

Tests used:
N370E GCase [1] = biological target: T1, N370E GCase (Homo sapiens, UniProt P04062, N409E); assay: GCase inhibition by active site-directed inhibitors, 4MU-Glc substrate; format: biochemical
T1 sequence (P04062 40-536 N409E): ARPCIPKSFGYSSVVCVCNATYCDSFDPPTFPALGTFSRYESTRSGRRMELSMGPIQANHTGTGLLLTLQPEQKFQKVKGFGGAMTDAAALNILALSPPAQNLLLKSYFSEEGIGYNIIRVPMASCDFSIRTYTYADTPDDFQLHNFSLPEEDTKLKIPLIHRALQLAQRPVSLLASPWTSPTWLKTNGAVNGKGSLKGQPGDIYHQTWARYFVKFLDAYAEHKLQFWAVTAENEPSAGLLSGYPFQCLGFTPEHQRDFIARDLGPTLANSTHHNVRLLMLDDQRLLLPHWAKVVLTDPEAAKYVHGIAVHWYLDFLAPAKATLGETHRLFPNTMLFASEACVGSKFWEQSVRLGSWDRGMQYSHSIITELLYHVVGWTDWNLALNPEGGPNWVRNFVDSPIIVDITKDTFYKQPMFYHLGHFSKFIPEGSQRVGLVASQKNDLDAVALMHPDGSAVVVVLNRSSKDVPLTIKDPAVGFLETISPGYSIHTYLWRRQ

N370 (wild-type) GCase [2] = biological target: T2, N370 (wild-type) GCase (Homo sapiens, UniProt P04062); assay: as above; format: biochemical
T2 sequence (P04062 40-536): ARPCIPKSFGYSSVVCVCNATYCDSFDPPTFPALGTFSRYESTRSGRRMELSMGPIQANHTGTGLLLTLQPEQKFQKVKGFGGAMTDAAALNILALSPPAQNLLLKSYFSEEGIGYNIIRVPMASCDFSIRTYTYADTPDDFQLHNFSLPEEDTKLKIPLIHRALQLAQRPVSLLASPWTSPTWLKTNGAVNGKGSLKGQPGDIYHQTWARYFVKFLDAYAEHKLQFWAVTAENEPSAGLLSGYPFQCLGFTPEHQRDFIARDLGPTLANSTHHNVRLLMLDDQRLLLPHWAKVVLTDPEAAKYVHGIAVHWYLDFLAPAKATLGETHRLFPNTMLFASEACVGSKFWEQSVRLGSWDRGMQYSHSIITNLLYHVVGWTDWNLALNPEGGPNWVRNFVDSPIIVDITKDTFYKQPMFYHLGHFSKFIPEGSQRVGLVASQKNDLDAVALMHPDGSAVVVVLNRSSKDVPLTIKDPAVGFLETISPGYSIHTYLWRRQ

N370D GCase [3] = biological target: T3, N370D GCase (Homo sapiens, UniProt P04062, N409D); assay: as above; format: biochemical
T3 sequence (P04062 40-536 N409D): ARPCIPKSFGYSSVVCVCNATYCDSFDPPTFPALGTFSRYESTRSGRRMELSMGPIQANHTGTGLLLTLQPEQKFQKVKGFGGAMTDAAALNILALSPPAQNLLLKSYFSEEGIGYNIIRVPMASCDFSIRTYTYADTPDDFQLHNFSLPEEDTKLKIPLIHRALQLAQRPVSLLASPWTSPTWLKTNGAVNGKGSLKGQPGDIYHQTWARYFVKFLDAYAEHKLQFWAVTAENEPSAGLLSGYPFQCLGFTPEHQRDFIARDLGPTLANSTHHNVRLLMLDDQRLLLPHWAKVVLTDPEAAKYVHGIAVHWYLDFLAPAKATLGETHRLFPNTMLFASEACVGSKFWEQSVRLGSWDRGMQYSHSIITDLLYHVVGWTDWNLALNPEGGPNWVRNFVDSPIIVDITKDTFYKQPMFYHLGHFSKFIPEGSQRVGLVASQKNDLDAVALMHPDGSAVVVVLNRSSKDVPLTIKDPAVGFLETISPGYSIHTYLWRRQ

N370S GCase [4] = biological target: T4, N370S GCase (Homo sapiens, UniProt P04062, N409S); assay: as above; format: biochemical
T4 sequence (P04062 40-536 N409S): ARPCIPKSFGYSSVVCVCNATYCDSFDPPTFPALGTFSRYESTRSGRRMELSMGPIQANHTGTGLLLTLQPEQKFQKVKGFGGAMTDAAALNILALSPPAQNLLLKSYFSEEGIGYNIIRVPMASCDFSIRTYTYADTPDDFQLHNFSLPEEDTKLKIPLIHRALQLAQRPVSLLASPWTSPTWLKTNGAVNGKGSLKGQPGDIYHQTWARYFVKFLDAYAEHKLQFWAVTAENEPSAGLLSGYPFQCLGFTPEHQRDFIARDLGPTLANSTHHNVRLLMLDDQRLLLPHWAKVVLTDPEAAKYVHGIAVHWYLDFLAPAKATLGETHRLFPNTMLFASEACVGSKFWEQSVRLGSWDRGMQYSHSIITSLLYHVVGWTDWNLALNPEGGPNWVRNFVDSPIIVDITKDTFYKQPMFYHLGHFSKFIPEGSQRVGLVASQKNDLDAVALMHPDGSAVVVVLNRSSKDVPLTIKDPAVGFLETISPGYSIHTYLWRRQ

N370Q GCase [5] = biological target: T5, N370Q GCase (Homo sapiens, UniProt P04062, N409Q); assay: as above; format: biochemical
T5 sequence (P04062 40-536 N409Q): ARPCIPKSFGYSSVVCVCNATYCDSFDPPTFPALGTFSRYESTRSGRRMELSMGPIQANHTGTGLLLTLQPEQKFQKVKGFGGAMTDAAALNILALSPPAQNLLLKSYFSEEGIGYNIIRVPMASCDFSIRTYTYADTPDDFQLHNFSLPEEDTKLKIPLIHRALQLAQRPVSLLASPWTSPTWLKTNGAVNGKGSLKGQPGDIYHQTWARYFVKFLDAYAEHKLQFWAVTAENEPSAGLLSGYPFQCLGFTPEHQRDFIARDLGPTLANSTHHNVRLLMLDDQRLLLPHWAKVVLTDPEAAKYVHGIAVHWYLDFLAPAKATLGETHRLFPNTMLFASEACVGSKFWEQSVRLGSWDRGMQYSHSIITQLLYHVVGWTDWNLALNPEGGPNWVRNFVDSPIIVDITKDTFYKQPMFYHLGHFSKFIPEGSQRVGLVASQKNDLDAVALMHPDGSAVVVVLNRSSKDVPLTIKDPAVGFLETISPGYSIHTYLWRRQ

[6] = system: all active enzymes (wild-type and mutant GCases); assay: Km for 4MU-Glc from Lineweaver-Burk plots; format: biochemical, human
E235G GCase = biological target: T6, E235G GCase (Homo sapiens, UniProt P04062, E274G); assay: E235G hydrolysis of alternative substrates, with or without azide; format: biochemical; conditions: for E235G activity toward substrate compared to wild-type enzyme: TC (4.25 mM) as activator, no azide
T6 sequence (P04062 40-536 E274G): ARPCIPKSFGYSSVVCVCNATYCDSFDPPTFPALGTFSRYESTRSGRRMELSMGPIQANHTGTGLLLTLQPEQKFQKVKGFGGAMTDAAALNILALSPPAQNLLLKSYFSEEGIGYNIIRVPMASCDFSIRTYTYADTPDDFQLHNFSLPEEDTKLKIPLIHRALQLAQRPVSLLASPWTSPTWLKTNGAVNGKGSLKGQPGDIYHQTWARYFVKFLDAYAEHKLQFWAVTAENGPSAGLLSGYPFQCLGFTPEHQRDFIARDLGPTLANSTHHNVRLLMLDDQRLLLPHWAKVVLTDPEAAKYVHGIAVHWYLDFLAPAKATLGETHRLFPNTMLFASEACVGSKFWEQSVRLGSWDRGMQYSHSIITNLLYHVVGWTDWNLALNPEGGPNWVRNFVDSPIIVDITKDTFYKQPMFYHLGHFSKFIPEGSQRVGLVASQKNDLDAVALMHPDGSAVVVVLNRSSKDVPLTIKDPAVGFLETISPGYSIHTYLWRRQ

[7] = system: N370, N370D, N370E and N370S enzymes; assay: Km for DNPG; format: biochemical, human; conditions: same for all the mutants (Fig. 4 legend)
N370E GCase [8] = biological target: T1, N370E GCase; assay: Enzyme activation by TC or saposin C
N370 (wild-type) GCase [9] = biological target: T2, N370 (wild-type) GCase; assay: Enzyme activation by TC or saposin C
N370D GCase [10] = biological target: T3, N370D GCase; assay: Enzyme activation by TC or saposin C
N370S GCase [11] = biological target: T4, N370S GCase; assay: Enzyme activation by TC or saposin C
N370Q GCase [12] = biological target: T5, N370Q GCase; assay: Enzyme activation by TC or saposin C
wild-type GCase = wild-type GCase (Homo sapiens, UniProt P04062); conditions: azide at 1:4 molar ratio enzyme to azide; DNPG
[13] = TC 0 to 8 mM, Triton X-100 4 mM, pH 5.6
[14] = in combination with 0.5 μM BPS, pH 5.5

IC50 (N370E GCase [1]): 78 ± 4 µM | IC50 (N370 (wild-type) GCase [2]): 73 ± 3 µM | IC50 (N370D GCase [3]): 72 ± 2 µM | IC50 (N370S GCase [4]): 251 ± 29 µM | IC50 (N370Q GCase [5]): 75 ± 2.5 µM
Molecule: O[C@H]1[C@H](O)[C@@H](O)[C@@H]2O[C@@H]2[C@@H]1O (racemic) [Conduritol B Epoxide, conduritol B epoxide]

Molecule: Cc1cc(=O)oc2cc(O[C@@H]3O[C@H](CO)[C@@H](O)[C@H](O)[C@H]3O)ccc12 [4MU-Glc, 4-methylumbelliferyl-β-D-glucoside]
Km [6]: 2000 ± 500 µM | E235G activity toward substrate compared to wild-type enzyme (E235G GCase): less than 0.05%

Molecule: O=[N+]([O-])c1ccc(O[C@@H]2O[C@H](CO)[C@@H](O)[C@H](O)[C@H]2O)c([N+](=O)[O-])c1 [DNPG, 2,4-dinitrophenyl-β-D-glucoside]
Km [7]: 108 ± 17 µM | E235G activity toward substrate compared to wild-type enzyme (E235G GCase): ~ 2%

Molecule: C[C@H](CCC(=O)NCCS(=O)(=O)O)[C@H]1CC[C@H]2[C@@H]3[C@H](O)C[C@@H]4C[C@H](O)CC[C@]4(C)[C@H]3C[C@H](O)[C@]12C [TC, Sodium taurocholate]
fold activation by TC (N370E GCase [8]; [13]): ~ 8 fold | fold activation by TC (N370 (wild-type) GCase [9]; wild-type, TC 0 to 8 mM, Triton X-100 4 mM, pH 5.6): ~ 25 fold | fold activation by TC (N370D GCase [10]; [13]): ~ 22 fold | fold activation by TC (N370S GCase [11]; TC ≥ 4 mM, Triton X-100 4 mM, pH 5.6): ~ 35 fold | fold activation by TC (N370Q GCase [12]; [13]): ~ 1.5 fold

Molecule: [N-]=[N+]=[N-].[Na+] [azide, sodium azide]
hydrolytic rate of 2,4-DNP-β-glucose by E235G relative to wild-type (E235G GCase; 10 μM azide (Fig. 6A)): 95% | hydrolytic rate of DNPG by E235G relative to wild-type enzyme (E235G GCase; 1:4 molar ratio of enzyme to azide): ~ 90% | effect of azide on wild-type enzyme activity (wild-type GCase): no effect

Molecule: O=[N+]([O-])c1ccccc1O[C@@H]1O[C@H](CO)[C@H](O)[C@H](O)[C@H]1O [o-NPG, o-nitrophenyl-β-glucose]
E235G activity toward substrate compared to wild-type enzyme (E235G GCase): less than 0.05%

Molecule: O=[N+]([O-])c1ccc(O[C@@H]2O[C@H](CO)[C@H](O)[C@H](O)[C@H]2O)cc1 [p-NPG, p-nitrophenyl-β-glucose]
E235G activity toward substrate compared to wild-type enzyme (E235G GCase): less than 0.05%

fold enhancement by saposin C (N370E GCase [8]; [14]): 1.8 fold | fold enhancement by saposin C (N370 (wild-type) GCase [9]; N370 (WT), in combination with 0.5 μM BPS, pH 5.5): ~ 3.5 fold | fold enhancement by saposin C (N370D GCase [10]; [14]): 1.8 fold | fold enhancement by saposin C (N370S GCase [11]; [14]): ~ 2.4 fold | enhancement by saposin C (N370Q GCase [12]; [14]): no effect
B1: saposin C: protein cofactor of GCase for optimal hydrolytic activity (protein, UniProt P07602 311-390, looked up)
Saposin-C: SDVYCEVCEFLVKEVTKLIDNNKTEKEILDAFDKMCSKLPKSLSEECQEVVDTYGSSILSILLEEVSPELVCSMLHLCSG
modifications: Saposin-C
